Entries after “also recorded” stand apart in the source; their conditions may differ.
Key:
hTRPM8 channel = molecular target: T1, hTRPM8 channel (Homo sapiens, UniProt Q7Z2W7); test: TRPM8 receptor assay, calcium entry (Fluo-8, FLIPR) in transfected CHO cells; type: cell-based; settings: for Potency Relative to L-menthol: ratio of TRPM8 EC50 values, menthol = 1.0
T1 construct: host or cells: CHO cells

philtrum skin = test: Cooling duration bioassay on philtrum skin; type: in vivo, human
Text: (§1) FIG. 1. Comparison of cooling duration of various p-menthanecarboxamide analogs on philtrum skin versus ocular margins. The philtrum skin is keratinized, but the ocular margins are not. The test substances numbered 1 to 11 are: D-Ala-OiPr, Gly-OiPr, D-Ala-OEt, D-Ala-OMe, D-Ala-GlynPr, GlynPr, D-Ala-OnBu, GlynBu, GlyOEt, L-Ala-OEt, and N-Me-D-Ala-OEt, respectively. Two outliers (1 and 2) were identified as preferred embodiments because they preferentially cool the ocular margins. The nasal cavity surfaces like the ocular margins are not keratinized.
(§2) Cooling agents have been assayed in various ways depending on intended use. For example, for the skin the test substance can be applied on philtrum skin, using descriptions of coolness on a scale of 0 to 3. For the ocular surface, the active ingredient can be applied to the closed eyelids using a wipe. In the oral cavity, drug applications are on the posterior dorsal surface of the tongue. For the oropharyngeal surface, the cooling agent may be applied as an orally disintegrating tablet. The ability of a cooling agent to antagonize a noxious stimuli may also be tested, using nociception from citric acid or chili pepper sauce. Responses are usually measured using a Visual Analog Scale with a numerical rating. For nasal responses, however, such procedures have not been standardized. Some endpoints to consider are open and comfortable breathing, the presence or absence of sniffles, and the secretion of phlegm.

ocular margins = test: Cooling duration bioassay on eyelids/ocular margins; type: in vivo, human; settings: for Duration of effects on the ocular margins, on average: test concentration 1 mg/mL
Text: as §1, §2

TRPV1 = molecular target: T2, TRPV1 (Homo sapiens, UniProt Q8NER1); test: TRPV1 specificity assay in transfected cells; type: cell-based; settings: FIG. 5; capsaicin positive control
T2 construct: expressed in transfected cells
T2 sequence (Q8NER1 whole entry, species assumed): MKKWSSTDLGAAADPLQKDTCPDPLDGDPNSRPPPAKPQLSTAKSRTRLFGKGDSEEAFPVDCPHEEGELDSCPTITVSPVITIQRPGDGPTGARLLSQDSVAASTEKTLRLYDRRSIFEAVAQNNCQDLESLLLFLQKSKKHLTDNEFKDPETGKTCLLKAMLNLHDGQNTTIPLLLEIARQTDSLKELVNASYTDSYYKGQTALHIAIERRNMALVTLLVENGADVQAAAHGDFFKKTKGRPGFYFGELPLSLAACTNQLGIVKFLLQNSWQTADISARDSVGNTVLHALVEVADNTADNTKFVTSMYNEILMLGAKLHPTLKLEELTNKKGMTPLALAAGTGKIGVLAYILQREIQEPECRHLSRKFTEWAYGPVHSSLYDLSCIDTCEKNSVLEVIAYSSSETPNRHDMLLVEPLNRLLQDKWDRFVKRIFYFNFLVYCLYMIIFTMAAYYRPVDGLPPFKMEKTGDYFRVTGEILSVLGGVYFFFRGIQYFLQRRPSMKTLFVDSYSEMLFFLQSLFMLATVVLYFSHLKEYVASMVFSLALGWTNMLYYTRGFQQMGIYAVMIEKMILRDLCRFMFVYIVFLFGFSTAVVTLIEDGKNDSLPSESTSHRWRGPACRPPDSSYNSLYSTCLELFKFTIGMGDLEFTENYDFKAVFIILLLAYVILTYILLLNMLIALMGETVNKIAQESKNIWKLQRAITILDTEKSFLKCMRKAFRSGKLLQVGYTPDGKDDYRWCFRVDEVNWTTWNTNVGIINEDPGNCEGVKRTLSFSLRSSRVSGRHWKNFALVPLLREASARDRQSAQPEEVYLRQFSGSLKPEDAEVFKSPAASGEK

nasal cavity = test: Nebulizer screening of TRPM8 agonists for sensations in the nasal cavity; type: in vivo, human; settings: NasoNeb nebulizer, 3 to 5 sec per nostril

T1 sequence (Q7Z2W7 whole entry): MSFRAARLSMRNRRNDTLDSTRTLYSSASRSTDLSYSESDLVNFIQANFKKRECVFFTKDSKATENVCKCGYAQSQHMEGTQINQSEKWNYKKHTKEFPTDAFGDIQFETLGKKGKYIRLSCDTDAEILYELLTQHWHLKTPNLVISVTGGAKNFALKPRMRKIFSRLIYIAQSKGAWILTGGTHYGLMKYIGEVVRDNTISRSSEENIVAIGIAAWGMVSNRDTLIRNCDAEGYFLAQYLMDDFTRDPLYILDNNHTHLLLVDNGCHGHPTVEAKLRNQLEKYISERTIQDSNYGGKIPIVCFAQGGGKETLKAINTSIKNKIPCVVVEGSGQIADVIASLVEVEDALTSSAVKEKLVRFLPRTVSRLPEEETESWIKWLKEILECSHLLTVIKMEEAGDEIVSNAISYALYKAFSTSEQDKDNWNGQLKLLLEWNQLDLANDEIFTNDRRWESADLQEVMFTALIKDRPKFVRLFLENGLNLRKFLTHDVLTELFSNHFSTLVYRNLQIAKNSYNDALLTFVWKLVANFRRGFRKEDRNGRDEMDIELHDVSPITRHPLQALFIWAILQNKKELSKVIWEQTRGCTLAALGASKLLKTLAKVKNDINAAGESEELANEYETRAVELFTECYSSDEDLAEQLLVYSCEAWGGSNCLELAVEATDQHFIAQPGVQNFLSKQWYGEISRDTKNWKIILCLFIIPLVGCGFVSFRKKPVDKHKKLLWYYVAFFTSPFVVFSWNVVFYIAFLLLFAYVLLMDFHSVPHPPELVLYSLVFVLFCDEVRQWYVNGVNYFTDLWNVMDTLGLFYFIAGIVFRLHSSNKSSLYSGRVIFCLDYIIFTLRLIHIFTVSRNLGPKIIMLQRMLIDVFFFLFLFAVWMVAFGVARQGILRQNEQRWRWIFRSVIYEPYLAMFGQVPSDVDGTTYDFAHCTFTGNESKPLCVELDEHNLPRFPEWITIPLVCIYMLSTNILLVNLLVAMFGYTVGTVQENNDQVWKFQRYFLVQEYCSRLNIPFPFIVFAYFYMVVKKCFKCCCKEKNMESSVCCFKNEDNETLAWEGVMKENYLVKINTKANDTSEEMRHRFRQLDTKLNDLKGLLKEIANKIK

Row | Compound | EC50 (hTRPM8 channel; CHO cells transfected with hTRPM8, Fluo-8 calcium kit, FLIPR) | Potency Relative to L-menthol (hTRPM8 channel) | Philtrum Skin (philtrum skin; Table 6, cooling duration, keratinized skin) | Eyelids/Ocular Surface (ocular margins; Table 6, cooling duration, non-keratinized) | Duration of effects on the ocular margins, on average (ocular margins) | Response of cells transfected with TRPV1 (TRPV1) | Sensory effects after delivery into the nasal cavity (nasal cavity) | Activity on TRPM8 transfected cells (hTRPM8 channel; FIG. 5) | Philtrum Skin (philtrum skin; Table 7, Gly esters) | Ocular Surface (ocular margins; Table 7, Gly esters) | Duration on the ocular surface (ocular margins; test concentration increased from 1 mg/mL to 1.5 mg/mL)
1 | CC(C)OC(=O)[C@@H](C)NC(=O)[C@@H]1C[C@H](C)CC[C@H]1C(C)C [D-Ala-OiPr, (R)-2-[((1R,2S,5R)-2-isopropyl-5-methyl-cyclohexanecarbonyl)amino]-propionic acid i-propyl ester] | 260 nM | 14.6 | 34 min | 360 min | ~5 h | inactive | Longer-acting than GlyOiPr. Excellent agent. It may have a slightly bitter taste. | – | – | – | –
2 | CC(C)OC(=O)CNC(=O)[C@@H]1C[C@H](C)CC[C@H]1C(C)C [GlyOiPr, [((1R,2S,5R)-2-isopropyl-5-methyl-cyclohexanecarbonyl)-amino]-acetic acid isopropyl ester] | – | 7.6 | – | – | ~5 h | do not respond; also recorded: activates TRPM8 but not TRPV1 or TRPA1 | The sense of coolness is pure, without any harsh tones. | active | 27 min | 300 min | about 6.5 hours

Reference: patent US20250288583A1, “Treatment of Mucus Hypersecretion” (priority 2024, published 2025)
